Here are results for 24 molecules from patent US20250152719A1, “FUSED IMIDE DERIVATIVE” (Chia Tai Tianqing Pharmaceutical Group Co., Ltd., priority 2021, published 2025).

Format in all cases: cell-based
The target in one assay is BTK (Homo sapiens (Human), UniProt Q06187). The assay is described as follows: BTK degradation in OCI-LY10 cells (Total-BTK HTRF kit). The conditions noted are these: 24 (or 6) h incubation; for DC50 / BTK degradation in OCI-LY10 cells Dmax: OCI-LY10 cells; for DC50: DC50 = concentration when degradation rate reaches 50%, read-out: OCI-LY10 cell BTK degradation DC50; for Dmax: OCI-Ly10, OCI-LY10 cells; for Dmax / BTK degradation in OCI-LY10 cells Dmax: maximum degradation rate. On the procedure: The detection was carried out using the Total-BTK Kits (cisbio, 63ADK064PEH), and 4× Supplemented Lysis buffer was prepared using the Blocking reagent stock solution (100×) and Lysis buffer stock solution (4×). Premixed antibody solutions were prepared using the Detection buffer, Total-BTK d2 antibody, and Total-BTK Eu Cryptate antibody.
Sequence of BTK (Q06187 whole entry): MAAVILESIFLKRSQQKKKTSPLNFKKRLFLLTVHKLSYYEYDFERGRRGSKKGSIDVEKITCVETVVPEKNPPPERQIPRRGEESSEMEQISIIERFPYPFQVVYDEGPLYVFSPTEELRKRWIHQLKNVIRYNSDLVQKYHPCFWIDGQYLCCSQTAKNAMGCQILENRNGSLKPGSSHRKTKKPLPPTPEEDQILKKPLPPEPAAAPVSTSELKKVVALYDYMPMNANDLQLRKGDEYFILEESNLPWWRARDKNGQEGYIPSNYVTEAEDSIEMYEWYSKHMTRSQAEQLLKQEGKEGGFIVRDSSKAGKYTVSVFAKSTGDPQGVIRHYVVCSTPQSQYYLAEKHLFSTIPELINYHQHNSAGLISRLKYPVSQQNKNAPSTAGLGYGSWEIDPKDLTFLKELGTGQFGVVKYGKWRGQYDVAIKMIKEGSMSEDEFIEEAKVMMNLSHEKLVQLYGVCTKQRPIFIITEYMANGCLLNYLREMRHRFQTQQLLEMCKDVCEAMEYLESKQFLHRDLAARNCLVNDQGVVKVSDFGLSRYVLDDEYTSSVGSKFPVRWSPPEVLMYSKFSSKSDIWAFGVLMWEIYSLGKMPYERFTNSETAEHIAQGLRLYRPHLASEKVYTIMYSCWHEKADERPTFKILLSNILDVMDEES
OCI-LY10 cells in a good growth state were collected and added to a centrifuge tube, adjusted to a cell density of 4.17×10^6 cells/mL, and seeded in a 384-well plate (12 μL/well). The cells were incubated overnight in a cell incubator. Compounds were added using a nanoliter pipettor such that the final concentrations of the compounds were 100 nM-0.098 nM; the addition was performed in duplicate, and meanwhile, a control was set. After another 24 (or 6) h of incubation in the cell incubator, the 4× Supplemented Lysis buffer was added at 4 μL/well to lyse the cells. After the cells were shaken for 40 min at room temperature, the Premixed antibody solutions were added at 4 μL/well, and the cells were left to stand overnight at room temperature. Fluorescence values of the cells were detected at 665 nm/620 nm using an Envision microplate reader, the four-parameter analysis was performed, the dose-response curves were fit, and DC50 (the concentration of the drug when the degradation rate reaches 50%) and Dmax (the maximum degradation rate) were calculated.
For orientation: TR-FRET usually uses a lanthanide donor and a delayed reading to cut background.

The subject of another assay is OCI-LY10 cells. The assay is described as follows: Inhibitory activity on OCI-LY10 cell proliferation (CCK-8). As for the experimental part: (§1) OCI-LY10 cells in a good growth state were collected and added to a centrifuge tube, adjusted to a cell density of 1×10^5 cells/mL, and seeded in a 96-well plate (100 μL/well). The cells were incubated overnight in a cell incubator. Compounds were added using a nanoliter pipettor such that the final concentrations of the compounds were 5000 nM-0.31 nM; the addition was performed in duplicate, and meanwhile, a control was set. After another 72 h of incubation in the cell incubator, 10 μL of CCK-8 (CK04, PP799) was added. After 2.5 h of incubation in the cell incubator, absorbance values were detected at 450 nm using an Envision microplate reader, the four-parameter analysis was performed, the dose-response curves were fit, and IC50 was calculated.

Another assay concerns TMD8-BTK(C481S) cells. The experiment in a line: Inhibitory activity on TMD8-BTK(C481S) cell proliferation (CCK-8). The conditions noted are these: 72 h incubation. As for the experimental part:
as §1, with “TMD8-BTK(C481S)” for “OCI-LY10”, “8×10^4” for “1×10^5”, “4” for “2.5”

The mark [1] stands for this setting: Homo sapiens, OCI-Ly10, 72 h incubation.

Each structure is given as a SMILES string.

On to `CN1CCN([C@@H]2CCCN(c3cnc(C(N)=O)c(Nc4ccc(C5CCN(C[C@H]6CCN(c7cc8onc(C9CCC(=O)NC9=O)c8cc7F)C6)CC5)cc4)n3)C2)C1=O` (stereo partly drawn) [Compound 3], for which, on BTK, the half-maximal degradation concentration (DC50) is less than 0.098 nM and the maximal degradation (Dmax) was 99%. The molecule further yielded a half-maximal inhibitory concentration (IC50) in the assay with OCI-LY10 cells (setting [1]) of less than 0.31 nM.
With `CN1CCN([C@@H]2CCCN(c3cnc(C(N)=O)c(Nc4ccc(C5C[C@@H]6CN(CC7Cc8ccc9c(C%10CCC(=O)NC%10=O)noc9c8C7)C[C@@H]6C5)cc4)n3)C2)C1=O` (stereo partly drawn) [Compound 49], the IC50 in the assay on TMD8-BTK(C481S) cells worked out at 6.8 nM. The “BTK degradation in OCI-LY10 cells Dmax” value on BTK is given as greater than 90%.
In the assay on TMD8-BTK(C481S) cells (72 h), `CN1CCN([C@@H]2CCCN(c3cnc(C(N)=O)c(Nc4ccc(C5CCN(C[C@H]6CCC(c7ccc8c(C9CCC(=O)NC9=O)noc8c7)C6)CC5)cc4)n3)C2)C1=O` (stereo partly drawn) [Compound 6] displayed an IC50 of 27 nM. On BTK, the DC50 was less than 0.098 nM and the maximal degradation (Dmax) is 99%. Besides, the IC50 in the assay on OCI-LY10 cells (setting [1]) was less than 0.31 nM.
As to `CN1CCN(C2CCCN(c3cnc(C(N)=O)c(Nc4ccc(C5CCC6(CC5)CN(C5Cc7ccc8c(C9CCC(=O)NC9=O)noc8c7C5)C6)cc4)n3)C2)C1=O` (stereo not drawn) [Compound 54], 9.7 nM corresponded to half-maximal inhibition in the assay on TMD8-BTK(C481S) cells (72 h) (IC50). At BTK, the maximal degradation (Dmax) is greater than 90%.
In the assay with TMD8-BTK(C481S) cells, `CN1CCN([C@@H]2CCCN(c3cnc(C(N)=O)c(Nc4ccc(C5CCC6(CC5)CN(CC5Cc7ccc8c(C9CCC(=O)NC9=O)noc8c7C5)C6)cc4)n3)C2)C1=O` (stereo partly drawn) [Compound 53] gave an IC50 of 2.8 nM. Moreover, on BTK, the DC50 is less than 0.098 nM and the Dmax was found to be 96%. This molecule came in with an IC50 with OCI-LY10 cells (setting [1]) of less than 0.31 nM.
`CN1CCN(C2CCCN(c3cnc(C(N)=O)c(Nc4ccc(C5CCC6(CC5)CN(C5Cc7ccc8c(C9CCC(=O)NC9=O)noc8c7C5)C6)cc4)n3)C2)C1=O` (stereo not drawn) [Compound 55] returned a 50% inhibitory concentration (IC50) in the assay on TMD8-BTK(C481S) cells of 6.1 nM. Also, the “BTK degradation in OCI-LY10 cells Dmax” value on BTK is greater than 90%.
Take `CN1CCN([C@@H]2CCCN(c3cnc(C(N)=O)c(Nc4ccc(C5CC6CCCC(C5)N6CC5Cc6ccc7c(C8CCC(=O)NC8=O)noc7c6C5)cc4)n3)C2)C1=O` (stereo partly drawn) [Compound 82]: the results for the IC50 in the assay with TMD8-BTK(C481S) cells and with OCI-LY10 cells (72 h incubation) were 11 nM and less than 0.31 nM, respectively. The “BTK degradation in OCI-LY10 cells Dmax” value on BTK is reported as greater than 90%.
In turn, `CN1CCN([C@@H]2CCCN(c3cnc(C(N)=O)c(Nc4ccc(C5CCC6(CC5)CN(CC5Cc7ccc8c(C9CCC(=O)NC9=O)noc8c7C5)C6)cc4)n3)C2)C1=O` (stereo partly drawn) [Compound 52] displayed an IC50 with TMD8-BTK(C481S) cells (72 h) of 3.7 nM. Also, on BTK, the “BTK degradation in OCI-LY10 cells Dmax” value is greater than 90%.
In the case of `NC(=O)c1ncc(N2CCCCC2)nc1Nc1ccc(C2CCN(CC3Cc4ccc5c(C6CCC(=O)NC6=O)noc5c4C3)CC2)cc1` (stereo not drawn) [Compound 76], inhibition in the assay on TMD8-BTK(C481S) cells was half-maximal at 11 nM (IC50). On BTK, this molecule yielded a Dmax greater than 90%.
`CN1CCN([C@@H]2CCCN(c3cnc(C(N)=O)c(Nc4ccc(C5CCN(C6Cc7ccc8c(C9CCC(=O)NC9=O)noc8c7C6)CC5)cc4)n3)C2)C1=O` (stereo partly drawn) [Compound 87]: the half-inhibitory concentration (IC50) in the assay with TMD8-BTK(C481S) cells was 11 nM; with OCI-LY10 cells (setting [1]), less than 0.31 nM. This molecule also yielded a Dmax on BTK greater than 90%.
Consider `NC(=O)c1ncc(N2CCCCC2)nc1Nc1ccc(N2CCC(N3CCc4ccc5c(C6CCC(=O)NC6=O)noc5c4CC3)CC2)cc1` (stereo not drawn) [Compound 62], for which the half-inhibitory concentration (IC50) was 8.2 nM in the assay with TMD8-BTK(C481S) cells (72 h) and less than 0.31 nM in the assay on OCI-LY10 cells (setting [1]). On BTK, this molecule registered a Dmax greater than 90%.
In the case of `CN1CCN([C@@H]2CCCN(c3cnc(C(N)=O)c(Nc4ccc(C5CCN(C[C@H]6CCN(c7cccc8c(C9CCC(=O)NC9=O)noc78)C6)CC5)cc4)n3)C2)C1=O` (stereo partly drawn) [Compound 2], in the assay with TMD8-BTK(C481S) cells (72 h), 18 nM corresponded to half-maximal inhibition (IC50). Also, at BTK, the 50% degradation concentration (DC50) was less than 0.098 nM and the greatest degradation seen (Dmax) turned out to be 99%.
In the case of `CN1CCN([C@@H]2CCCN(c3cnc(C(N)=O)c(Nc4ccc(C5C[C@@H]6CN(CC7Cc8ccc9c(C%10CCC(=O)NC%10=O)noc9c8C7)C[C@@H]6C5)cc4)n3)C2)C1=O` (stereo partly drawn) [Compound 48], it took 5.7 nM to reach half-maximal inhibition with TMD8-BTK(C481S) cells (72 h) (IC50). At BTK, this molecule displayed a Dmax greater than 90%.
Regarding `CN1CCN([C@@H]2CCCN(c3cnc(C(N)=O)c(Nc4ccc(C5CC6CCCC(C5)N6CC5Cc6ccc7c(C8CCC(=O)NC8=O)noc7c6C5)cc4)n3)C2)C1=O` (stereo partly drawn) [Compound 81], the values for the IC50 with TMD8-BTK(C481S) cells (72 h) and with OCI-LY10 cells (setting [1]) were 11 nM and less than 0.31 nM, respectively. This molecule also yielded a maximal degradation (Dmax) on BTK greater than 90%.
`CN1CCN([C@@H]2CCCN(c3cnc(C(N)=O)c(Nc4ccc(C5CC6CCCC(C5)N6C5Cc6ccc7c(C8CCC(=O)NC8=O)noc7c6C5)cc4)n3)C2)C1=O` (stereo partly drawn) [Compound 80]: the IC50 in the assay on TMD8-BTK(C481S) cells is 11 nM; in the assay with OCI-LY10 cells (72 h incubation), less than 0.31 nM. Further, on BTK, the “BTK degradation in OCI-LY10 cells Dmax” value is given as greater than 90%.
Consider `CN1CCN([C@@H]2CCCN(c3cnc(C(N)=O)c(Nc4ccc(C5CCN([C@H]6C[C@@H](n7ccc8c9c(C%10CCC(=O)NC%10=O)noc9ccc87)C6)CC5)cc4)n3)C2)C1=O` (stereo partly drawn) [Compound 100], for which the IC50 with TMD8-BTK(C481S) cells (72 h) was 0.57 nM; with OCI-LY10 cells (setting [1]), less than 0.31 nM. On BTK, this molecule registered a Dmax greater than 90%.
`CN1CCN([C@@H]2CCCN(c3cnc(C(N)=O)c(Nc4ccc(C5CCC6(CC5)CC(N5CCc7c(ccc8c(C9CCC(=O)NC9=O)noc78)C5)C6)cc4)n3)C2)C1=O` (stereo partly drawn) [Compound 58] gave a concentration for half-maximal inhibition (IC50) with TMD8-BTK(C481S) cells (72 h) of 21 nM. This molecule gave a Dmax at BTK greater than 90%.
Consider `CN1CCN([C@@H]2CCCN(c3cnc(C(N)=O)c(Nc4ccc(C5CC6CCCC(C5)N6C5Cc6ccc7c(C8CCC(=O)NC8=O)noc7c6C5)cc4)n3)C2)C1=O` (stereo partly drawn) [Compound 79], for which the 50% inhibitory concentration (IC50) in the assay with TMD8-BTK(C481S) cells (72 h) was 12 nM; in the assay with OCI-LY10 cells (setting [1]), less than 0.31 nM. Moreover, the maximal degradation (Dmax) on BTK was greater than 90%.
In the same order, the values of `CN1CCN([C@@H]2CCCN(c3cnc(C(N)=O)c(Nc4ccc5c(c4)CCC4(CCN(CC6Cc7ccc8c(C9CCC(=O)NC9=O)noc8c7C6)CC4)O5)n3)C2)C1=O` (stereo partly drawn) [Compound 77] are 23 nM, less than 0.31 nM and greater than 90%.
Consider `CN1CCN([C@@H]2CCCN(c3cnc(C(N)=O)c(Nc4ccc(C5CCC6(CC5)CN(CC5CN(c7ccc8c(C9CCC(=O)NC9=O)noc8c7)C5)C6)cc4)n3)C2)C1=O` (stereo partly drawn) [Compound 11], for which it took 14 nM to reach half-maximal inhibition in the assay with TMD8-BTK(C481S) cells (72 h) (IC50). Further, on BTK, the DC50 is less than 0.098 nM and the greatest degradation seen (Dmax) was determined as 99%. The IC50 in the assay on OCI-LY10 cells (setting [1]) is less than 0.31 nM.
`CN1CCN([C@@H]2CCCN(c3cnc(C(N)=O)c(Nc4ccc(C5CCC6(CC5)CC(N5Cc7ccc8c(C9CCC(=O)NC9=O)noc8c7C5)C6)cc4)n3)C2)C1=O` (stereo partly drawn) [Compound 56]: half-maximal inhibition in the assay on TMD8-BTK(C481S) cells (72 h) (IC50) required 33 nM. Also, the greatest degradation seen (Dmax) at BTK is greater than 90%.
The molecule `CN1CCN([C@@H]2CCCN(c3cnc(C(N)=O)c(Nc4ccc(C5CCN(C6Cc7ccc8c(C9CCC(=O)NC9=O)noc8c7C6)CC5)cc4)n3)C2)C1=O` (stereo partly drawn) [Compound 88] yielded an IC50 with TMD8-BTK(C481S) cells of 29 nM. Besides, the “BTK degradation in OCI-LY10 cells Dmax” value on BTK is reported as greater than 90%.
In the assay on TMD8-BTK(C481S) cells (72 h), `CN1CCN([C@@H]2CCCN(c3cnc(C(N)=O)c(Nc4ccc(C5CCN(C[C@H]6CCN(c7ccc8c(C9CCC(=O)NC9=O)noc8c7)C6)CC5)cc4)n3)C2)C1=O` (stereo partly drawn) [Compound 1] yielded an IC50 of 35 nM. Besides, at BTK, the DC50 was less than 0.098 nM and the Dmax amounted to 99%. In the assay on OCI-LY10 cells (setting [1]), this molecule displayed an IC50 of less than 0.31 nM.
In turn, `CN1CCN([C@@H]2CCCN(c3cnc(C(N)=O)c(Nc4ccc(C5CCC6(CC5)CCN(CC5Cc7ccc8c(C9CCC(=O)NC9=O)noc8c7C5)CC6)cc4)n3)C2)C1=O` (stereo partly drawn) [Compound 51] showed an IC50 in the assay with TMD8-BTK(C481S) cells of 4.7 nM. Also, at BTK, the “BTK degradation in OCI-LY10 cells Dmax” value is given as greater than 90%.

What is called DC50 is the concentration giving 50% degradation. By Dmax is commonly meant the greatest extent of degradation seen. High values mean deep degradation, low ones shallow degradation. What is called IC50 is the midpoint of a concentration-inhibition curve. Higher therefore signals lower potency.
